Experiments:
calvaria = assay: Inhibitory effect on bone absorption (calcium liberation from PTH enhanced cultured calvaria); assay type: cell-based; conditions: newborn dd mouse calvaria culture, PTH 1 x 10^-8M, 96 hours, total calcium in the culture
Experimental: The calvaria was excised from a newborn dd mouse (5 to 6 days old) under sterile conditions. The calvaria was washed with a modified Dulbecco phosphate buffer physiological saline solution containing neither calcium nor magnesium (a product of Gibco Oriental), and divided into two parts along the center suture. A half of the calvaria was cultivated in a modified Dulbecco Eagle medium (1.5 ml) (a product of Gibco Oriental) containing 2.5% fetal calf serum and 15% equine serum which had been inactivated by heating at 56°C for 20 minutes. The test compound was dissolved in dimethyl sulfoxide and 10 µl of the resulting solution was added to the culture medium to give the final concentrations of 3 x 10^-6M, 1 x 10^-5M, and 3 x 10^-5M. PTH (parathyroid hormone) was dissolved in a 0.15 M saline solution (pH 3) and 3 µl of the resulting solution was added to the culture medium to give the final concentration of 1 x 10^-8M. The culturing was carried out under the condition of 95 % air and 5 % carbon dioxide and at a temperature of 37°C for 96 hours. At 48 hours after the start of the culturing, the culture medium was renewed and the test compound and PTH treated as defined above were added thereto. For examining the effect of the test compound on calcium liberation (bone absorption) from the PTH enhanced bone, a control group, a group using PTH (1 x 10^-8M), and a group using both the test compound (3 x 10^-6M, 1 x 10^-5M, 3 x 10^-5M) and PTH were prepared. The amount of the bone absorption was determined by measuring the amount of calcium accumulated in the culture as collected after 96 hours of culturing. The total calcium concentration in the culture was measured with Calcium C Test Wako. The inhibition rate was calculated using the following equation and the result was shown in terms of 50% inhibitory concentration (IC50). Inhibition of bone absorption from PTH enhanced bone Inhibition rate (%) = [(CP - CD )/(CP - C0 )] x 100 [formula] C0 : The total calcium concentration in the culture containing neither the test compound nor PTH. CP : The total calcium concentration in the culture treated with only PTH. CD : The total calcium concentration in the culture treated . with both the test compound and PTH.

bone density = assay: Inhibitory effect on decrease of bone density by ovariectomy; assay type: in vivo; conditions: ovariectomized female SD strain rats, 10 mg/kg orally once a day for 3 weeks, right hindlimb, DEXA (DXA) method
Experimental: The experiment was carried out using 10-weeks-old female SD strain rats (Charles River Japan Inc.) The ovaries on both sides of the rats were excised under anesthesia using Nembutal. The test compound (10 mg/kg) was dissolved or suspended in distilled water for injection (a product of Otsuka Pharmaceutical Co., Ltd.) and administered orally once a day from the first day after the operation for 3 weeks. For the control group, distilled water for injection alone was administered. The rat was slaughtered by neck dislocation, the right hindlimb was ablated, and then the bone density of the neck was measured according to a DEXA (DXA) method [Japan Clinic, 52 (9), 2329-2334 (1994)] using bone mineral measuring apparatus DCS-600 (a product of Aloka Co., Ltd.) The inhibition rate of decrease in the bone density of the test compound-administered group was calculated from the decrease of the bone density in the test compound-administered group and that in the control group.

For `O=C(c1[nH]c2ccccc2c1C(c1ccc(O)cc1)c1ccc(O)cc1)N1CCN(c2ccccc2Cl)CC1` [Compound 8, 1-{3-[Bis(4-hydroxyphenyl)methyl]indol-2-ylcarbonyl}-4-(2-chloroghenyl)piperazine], the IC50 (calvaria) was > 30 µM.
For `CN(C)CCn1c(C(=O)N2CCN(c3ccccc3Cl)CC2)c(C(c2ccc(O)cc2)c2ccc(O)cc2)c2ccccc21.CS(=O)(=O)O` [Compound 9, 1-{3-[Bis(4-hydroxyphenyl)methyl]-1-(2-dimethylaminoethyl)indol-2-ylcarbonyl}-4-(2-chlorophenyl)piperazine methanesulfonate], the IC50 (calvaria) was 11.5 µM and the “Inhibition rate of decrease in bone density (%)” value (bone density) was 97%.
For `CS(=O)(=O)O.O=C(c1c(C(c2ccc(O)cc2)c2ccc(O)cc2)c2ccccc2n1CCN1CCOCC1)N1CCN(c2ccccc2Cl)CC1` [Compound 10, 1-{3-[Bis(4-hydroxyphenyl)methyl]-1-(2-morpholinoethyl)indol-2-ylcarbonyl}-4-(2-chlorophenyl)-piperazine methanesulfonate], the IC50 (calvaria) was 9.6 µM and the “Inhibition rate of decrease in bone density (%)” value (bone density) was 33%.
For `CCCNC(=O)c1c(C(c2ccc(O)cc2)c2ccc(O)cc2)c2ccccc2n1CCN(C)C` [Compound 11, N-Propyl-3-[bis(4-hydroxyphenyl)methyl]-1-(2-dimethylaminoethyl)indole-2-carboxamide methanesulfonate], the IC50 (calvaria) was > 30 µM.
For `CC(C)NC(=O)c1c(C(c2ccc(O)cc2)c2ccc(O)cc2)c2ccccc2n1CCN(C)C` [Compound 12, N-Isopropyl-3-[bis(4-hydroxyphenyl)methyl]-1-(2-dimethylaminoethyl)indole-2-carboxamide methanesulfonate], the IC50 (calvaria) was > 30 µM.
`CN(C)CCn1c(C(=O)N2CCCCC2)c(C(c2ccc(O)cc2)c2ccc(O)cc2)c2ccccc21` [Compound 13, 1-{3-[Bis(4-hydroxyphenyl)methyl]-1-(2-dimethylaminoethyl)indol-2-ylcarbonyl)piperidine methanesulfonate] gave an IC50 (calvaria) of 15 µM.
For `CN(C)CCn1c(C(=O)NC2CCCCCC2)c(C(c2ccc(O)cc2)c2ccc(O)cc2)c2ccccc21` [Compound 14, N-Cycloheptyl-3-[bis (4-hydroxyphenyl)methyl]-1-(2-dimethylaminoethyl)indole-2-carboxamide methanesulfonate], the IC50 (calvaria) was 11.9 µM.

— patent publication EP0741132B1, “INDOLE DERIVATIVES” (KYOWA HAKKO KOGYO CO., LTD., priority 1994, dated 1995)
